Source: patent publication US20230339983A1, “FLUORESCENT COMPOUNDS SPECIFIC FOR PLURIPOTENT STEM CELLS AND REPROGRAMMING-READY CELLS AND METHODS OF USING THE SAME” (Agency for Science, Technology and Research, priority 2018, published 2023)

Assays:
Type in all cases: cell-based, human
[1] = test system: reprogrammed SC-ASCs and VS-ASCs; test: FACS of reprogrammed ASCs stained with BDL-E5 at 14 dpn and iPS colony count; details: for iPS colonies from BDL-E5+ versus BDL-E5- sorted cells: seeded on MEF; for percentage of cells staining negatively / percentage of cells staining positively: FACS at 14 dpn
Text: WAT was isolated from subcutaneous (abdominal region) and visceral (omental region) depots from 2 human volunteers (S15-S16, undergoing bariatric surgery, with approval by the National Healthcare Group Domain Specific Review Board at National Healthcare Group, Singapore) as described previously (Ong, et al. (2014). Stem Cell Reports 2, 171-179; Takeda, et al. (2016). Diabetes 65, 1164-1178). […]. ASCs were isolated from WAT and cultured, as previously described (Sugii, et al. (2011). Nature Protoc 6, 346-358). Cells only up to passage 5 were used for experiments. MSC cell surface markers and multipotency of ASCs used herein were confirmed by flow cytometry and differentiation assays, respectively (Ong, et al. (2014). Stem Cell Reports 2, 171-179).
(§1) Reprogrammed ASCs and DPSCs, AiPS and DiPS on D7 or D14 dpn were stained with BDL-E5 for 1 hour and then harvested using TrypLE and resuspended in 1×PBS. The cells were then subjected to FACS in the MoFlo XDP Cell Sorter (Beckman Coulter) under sterile conditions.
Next, the inventors investigated whether the probe was useful in assisting reprogramming selection of obese patient-derived ASCs from subcutaneous (SC) and visceral (VS) fat depots. […] FIG. 10A (iii) and (iv) represents the unstained ASCs. BDL-E5^+ and BDL-E5^− cells sorted using FACS were seeded onto MEF-coated plates.
To investigate the quality of the BDL-E5^+ generated iPS cells, the iPS colonies were passaged for several generations. As shown in FIG. 10B(i), ASC-derived BDL-E5^+ colonies remained well self-renewed and TRA-1-60 positive for subsequent passages.

reprogrammed DPSCs = test: FACS of reprogrammed DPSCs stained with BDL-E5 at 7 dpn and iPS colony count; details: DPSCs sorted at 7 dpn, seeded on MEF, two weeks
Method: as §1
Different DPSC cell lines were reprogrammed using the feeder-free episomal method, incubated with BDL-E5, and subjected to fluorescence activated cell sorting (FACS) at 7 dpn. […] FIG. 10A (i) and (ii) represents the unstained DPSCs.
The cells were allowed to grow for the next two weeks until colonies appeared.

[2] = test system: reprogramming (RP) versus non-reprogramming (non-RP) DPSCs (DPSC1); test: Signal-to-noise comparison of reprogramming versus non-reprogramming cells
Method: FIG. 14: (A) Graph representing signal-to-noise ratios (arbitrary fluorescence units) on comparing reprogramming (RP) versus non-reprogramming (non-RP) DPSCs (DPSC1) stained with either CDy1 or BDL-E5. The fluorescence intensity was measured using ImageJ software. 100 cells per field (10×), 10 fields per well, 3 wells per probe were measured. […] denotes significance between RP and non-RP cells. (B) Proliferation assay of DPSC1 incubated with BDL-E5 (500 nM) for 2 to 5 days; represented as number of viable cells per cm^2 (n=3). (C) Proliferation assay of reprogramming DPSC1, 48 h after transfection with Scr CREB1, CREB1 OE or siCREB1; represented as number of viable cells per cm^2 (n=3).

COc1cc(F)c(/C=C/c2cc(C)c3n2[B-](F)(F)[N+]2=C(CCC(=O)NCCN(C)C)C=CC2=C3)cc1OC [BDL-E5]
iPS colonies from BDL-E5+ versus BDL-E5- sorted cells ([1]; SC-ASCs sorted at 14 dpn): gave rise to more colonies than the BDL-E5^− population | percentage of cells staining negatively ([1]; SC-ASCs): ~11% | percentage of cells staining positively ([1]; SC-ASCs): ~33% | iPS colonies from BDL-E5+ versus BDL-E5- sorted cells ([1]; VS-ASCs sorted at 14 dpn): at least some BDL-E5^+ VS-ASCs gave rise to iPS colonies | percentage of cells staining negatively ([1]; VS-ASCs): ~24% | percentage of cells staining positively ([1]; VS-ASCs): ~19% | iPS colonies from BDL-E5+ (top 10%) versus BDL-E5- (bottom 10%) sorted cells (reprogrammed DPSCs): gave rise to an increased number of iPSCs | signal toward reprogramming cells and background staining against non-reprogramming cells [2]: low non-specific staining against non-reprogramming cells
